In patent US8048892B2, “Azaquinolone based compounds exhibiting prolyl hydroxylase inhibitory activity, compositions, and uses thereof” (Amgen Inc., priority 2006, dated 2011):

Target: HIF PHD2 (Homo sapiens, UniProt Q9GZT9)
Test: PHD2 inhibition assay (TR-FRET, VCB-Eu detection of hydroxylated P564-HIF1α peptide)
Format: biochemical
Details: 2 nM PHD2, 100 nM P564-HIF1α peptide, 0.25 μM 2-oxoglutarate
Summary of the method: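 Human PHD2 (2 nM final) preincubated 1 h at room temperature with compound and 100 μM FeCl2 in pH 6 MES buffer, 5% DMSO final. Reaction with 100 nM biotinylated P564-HIF1α peptide, 2 mM ascorbate and 0.25 μM 2-oxoglutarate for 1 h, stopped with succinate. Hydroxylation read by TR-FRET (VCB-Eu/streptavidin-APC, 655/615 nm); IC50 from 4-parameter fit of percent of control.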

HIF PHD2, sequence (Q9GZT9 whole entry): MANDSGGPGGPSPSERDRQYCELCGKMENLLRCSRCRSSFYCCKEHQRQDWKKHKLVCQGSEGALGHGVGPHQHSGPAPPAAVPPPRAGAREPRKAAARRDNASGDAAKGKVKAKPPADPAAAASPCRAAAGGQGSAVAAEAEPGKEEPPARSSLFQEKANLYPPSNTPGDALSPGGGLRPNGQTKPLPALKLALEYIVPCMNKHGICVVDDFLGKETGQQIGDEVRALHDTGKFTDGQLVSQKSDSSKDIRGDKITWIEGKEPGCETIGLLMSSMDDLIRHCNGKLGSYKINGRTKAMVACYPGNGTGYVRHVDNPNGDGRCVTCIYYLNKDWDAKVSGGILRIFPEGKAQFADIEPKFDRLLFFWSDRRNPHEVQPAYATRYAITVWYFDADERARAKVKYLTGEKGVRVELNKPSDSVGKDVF

| IC50 [nM] | SMILES |
| --- | --- |
| < 50 | Cn1c(=O)c(C(=O)NCC(=O)O)c(O)c2ccc(-c3cccnc3)nc21 [Example 17, N-((4-Hydroxy-1-methyl-2-oxo-7-(3-pyridinyl)-1,2-dihydro-1,8-naphthyridin-3-yl)carbonyl)glycine] |
| < 50 | Cn1c(=O)c(C(=O)NCC(=O)O)c(O)c2ccc(Br)nc21 [Example 11, 2-(7-Bromo-4-hydroxy-1-methyl-2-oxo-1,2-dihydro-1,8-naphthyridine-3-carboxamido)acetic acid] |
| < 50 | Cn1c(=O)c(C(=O)NCC(=O)O)c(O)c2cc(-c3cccnc3)c(C(F)(F)F)nc21 [Example 91, 2-(4-Hydroxy-1-methyl-2-oxo-6-(pyridin-3-yl)-7-(trifluoromethyl)-1,2-dihydro-1,8-naphthyridine-3-carboxamido)acetic acid] |
| < 50 | Cn1c(=O)c(C(=O)NCC(=O)O)c(O)c2cc(-c3cccs3)ncc21 [Example 109, N-((4-Hydroxy-1-methyl-2-oxo-6-(2-thienyl)-1,2-dihydro-1,7-naphthyridin-3-yl)carbonyl)glycine] |
| < 50 | Cn1c(=O)c(C(=O)NCC(=O)O)c(O)c2cc(C#CC3CC3)c(C(F)(F)F)nc21 [Example 97, 2-(6-(2-Cyclopropylethynyl)-4-hydroxy-1-methyl-2-oxo-7-(trifluoromethyl)-1,2-dihydro-1,8-naphthyridine-3-carboxamido)acetic acid] |
| < 50 | Cn1c(=O)c(C(=O)NCC(=O)O)c(O)c2cc(C#N)cnc21 [Example 85, N-((6-Cyano-4-hydroxy-1-methyl-2-oxo-1,2-dihydro-1,8-naphthyridin-3-yl)carbonyl)glycine] |
| 50 to 100 | Cn1c(=O)c(C(=O)NCC(=O)O)c(O)c2ccc(N3CCCCC3)nc21 [Example 22, 2-(4-Hydroxy-1-methyl-2-oxo-7-(piperidin-1-yl)-1,2-dihydro-1,8-naphthyridine-3-carboxamido)acetic acid] |
